Reference: PubChem BioAssay (NCI)
Several values for one entry are separate records, joined by “and”; a condition that tells them apart may be missing. Identical values can stand only once.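 Growth conditions: 96-well plates. Treatment: test compound, 48 hours, 5 concentrations. Analysis: linear interpolation between bracketing concentrations; unreached endpoints set to highest concentration. GI50 = concentration required for 50% inhibition of growth. TGI: concentration producing complete growth inhibition.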

Columns and labels:
Test in all cases: DTP human tumour cell line panel, 48 h
HCT-116 colon = system: HCT-116 colon
TK-10 renal = system: TK-10 renal
UACC-257 melanoma = system: UACC-257 melanoma
M14 melanoma = system: M14 melanoma
K-562 leukemia = system: K-562 leukemia
MOLT-4 leukemia = system: MOLT-4 leukemia
SF-295 CNS = system: SF-295 CNS
A549 NSCLC = system: A549 NSCLC
EKVX NSCLC = system: EKVX NSCLC
SF-539 CNS = system: SF-539 CNS
MDA-MB-435 = system: MDA-MB-435

| Compound | TGI (HCT-116 colon) | TGI (TK-10 renal) | TGI (UACC-257 melanoma) | TGI (M14 melanoma) | TGI (K-562 leukemia) | TGI (MOLT-4 leukemia) | TGI (SF-295 CNS) | TGI (A549 NSCLC) | TGI (EKVX NSCLC) | TGI (SF-539 CNS) | TGI (MDA-MB-435) | GI50 (UACC-257 melanoma) | GI50 (MOLT-4 leukemia) | GI50 (SF-295 CNS) | GI50 (MDA-MB-435) |
| --- | --- | --- | --- | --- | --- | --- | --- | --- | --- | --- | --- | --- | --- | --- | --- |
| CCCCN(CC)c1nc(C)nc2c1c(C)c(C)n2-c1c(C)cc(C)cc1C | 23.4 µM | 31.1 µM | 26.9 µM | 35.6 µM | 29.8 µM | 30.1 µM | 28 µM | 30.2 µM | 27.5 µM | 6.46 µM | 33.3 µM | – | – | – | – |
| CCOC(=O)CCC(NC(=O)c1ccc(OCc2nc3cc(C(F)(F)F)ccc3nc2-c2ccccc2)cc1)C(=O)OCC (centres undefined) | > 100 µM | – | > 100 µM | > 100 µM | > 100 µM | > 100 µM | > 100 µM | > 100 µM | > 100 µM | > 100 µM | > 100 µM | – | – | – | – |
| CC1(C)CC2(C)CC1CC2O (centres undefined) | > 100 µM | > 100 µM | > 100 µM | > 100 µM | > 100 µM | > 100 µM | > 100 µM | > 100 µM | > 100 µM | > 100 µM | > 100 µM | – | – | – | – |
| COc1ccc(-c2c(C#N)c(S)n(C3OC(COC(C)=O)C(OC(C)=O)C(OC(C)=O)C3OC(C)=O)c(=O)c2C#N)cc1 (centres undefined) | > 100 µM | > 100 µM and 92.2 µM | > 100 µM and 42 µM | > 100 µM | – | > 100 µM | > 100 µM | > 100 µM | > 100 µM | > 100 µM | > 100 µM and 50.6 µM | > 100 µM and 19.8 µM | > 100 µM and 39.2 µM | 36.1 µM and 87.1 µM | 56.9 µM and 21.3 µM |
| O=C1CC(O)c2c1csc2Br (centres undefined) | 49.1 µM | 38.2 µM | 31.4 µM | 35.5 µM | 76.7 µM | 55.3 µM | > 100 µM | > 100 µM | > 100 µM | – | 41.1 µM | – | – | – | – |
| Cc1ccccc1C1OC1C(=O)c1ccccc1N (centres undefined) | > 100 µM | > 100 µM | > 100 µM | > 100 µM | > 100 µM | > 100 µM | – | > 100 µM | – | > 100 µM | 43.2 µM | – | – | – | – |
| N#CC1=C(N)OC2=C(CSc3ccccc32)C1c1ccc(Br)cc1 (centres undefined) | 14.2 µM | 31.2 µM | 30.2 µM | 39.8 µM | 11.3 µM | 8.44 µM | 29 µM | 27.2 µM | 11.4 µM | 13.7 µM | 7.82 µM | – | – | – | – |
| CC12CC(c3ccccc3O1)C(C(=O)Nc1ccc(F)cc1)C(=O)N2 (centres undefined) | > 100 µM | – | > 100 µM | > 100 µM | > 100 µM | 76.5 µM | – | > 100 µM | > 100 µM | > 100 µM | > 100 µM | – | – | – | – |
| O=C(NS(=O)(=O)Nc1ccc(Cl)cc1)OCc1ccc(Cl)cc1Cl | 45.5 µM | 41.9 µM | > 100 µM | > 100 µM | > 100 µM | > 100 µM | 42.7 µM | 52.6 µM | – | 40.6 µM | 50.9 µM | – | – | – | – |
| O=C(Cc1nc2ccc(C(=O)c3ccccc3)cc2[nH]c1=O)C(=O)Nc1ccc(Br)cc1 | > 100 µM | > 100 µM | > 100 µM | > 100 µM | > 100 µM | – | > 100 µM | > 100 µM | > 100 µM | > 100 µM | > 100 µM | – | – | – | – |
| Oc1ccccc1C(c1cc2c(cc1O)OCO2)N1CCOCC1 (centres undefined) | 31.5 µM | – | 36.1 µM | 34.3 µM | 23.5 µM | 40.6 µM | 41.6 µM | 57.6 µM | > 100 µM | 39.2 µM | 34.9 µM | – | – | – | – |
| C=CCN(CC=C)Cn1c(=S)sc2ccccc21 | > 100 µM | > 100 µM | > 100 µM | > 100 µM | – | > 100 µM | > 100 µM | > 100 µM | > 100 µM | > 100 µM | > 100 µM | – | – | – | – |
| Cc1c(/C=N\NC(=S)N2CCN(C(=S)N/N=C\c3c(C)n(C)n(-c4ccccc4)c3=O)CC2)c(=O)n(-c2ccccc2)n1C | > 100 µM | 33.9 µM | 97.3 µM | > 100 µM | – | > 100 µM | > 100 µM | > 100 µM | > 100 µM | > 100 µM | 64.7 µM | – | – | – | – |
| CCOC(=O)c1cc(=C2\CCN(CC(C)CC)C2=S)/c(=C(/O)CC)[nH]1 (centres undefined) | 28.7 µM | 28.6 µM | 31.4 µM | – | 37.8 µM | 24.6 µM | 34.4 µM | > 100 µM | 35.3 µM | 24.9 µM | 29.6 µM | – | – | – | – |
| CCOC(=O)c1sc2nc(SC)nc3c2c1N=CN3c1ccc(Br)cc1 | > 100 µM | > 100 µM | > 100 µM | > 100 µM | > 100 µM | > 100 µM | > 100 µM | > 100 µM | > 100 µM | – | > 100 µM | – | – | – | – |
| CCN(CC)CCn1c2cc3c(cc2c(=O)c2cccnc21)OCCO3 | > 10 µM | > 10 µM | > 10 µM | > 10 µM | – | > 10 µM | > 10 µM | > 10 µM | > 10 µM | > 10 µM | > 10 µM | – | – | – | – |
| CO[C@@H](C(=O)OC1C=CC2(CC1)C(=O)N(C)c1ccccc12)c1ccccc1 (some centres undefined) | > 100 µM | > 100 µM | > 100 µM | > 100 µM | > 100 µM | > 100 µM | > 100 µM | > 100 µM | > 100 µM | – | > 100 µM | – | – | – | – |
| Cc1cn(C2C=CC(COP(=O)(OCC3=CC(=O)c4ccccc4C3=O)N(C)CCCCCl)O2)c(=O)[nH]c1=O (centres undefined) | 26.9 µM | 36.5 µM | 13.9 µM | 2.84 µM | 21.1 µM | 0.769 µM | 11.3 µM | 2.97 µM | – | 25.8 µM | 3.35 µM | – | – | – | – |
| O=C1CC2(C[C@@H]3CCCCCCCCC[C@@H](C3)C2)N1 (some centres undefined) | 33.6 µM | 31.2 µM | 25.1 µM | 28.8 µM | 55.1 µM | 37.4 µM | 31.2 µM | 38.4 µM | 28.2 µM | 30.4 µM | – | – | – | – | – |
| CCOC(=O)c1c(NC(=O)c2ccccc2)sc2c1CCCC2 | > 100 µM | > 100 µM | > 100 µM | > 100 µM | > 100 µM | > 100 µM | > 100 µM | – | > 100 µM | > 100 µM | > 100 µM | – | – | – | – |
| O=C1CC2C=CC(O)C(C1)C2 (centres undefined) | > 100 µM | > 100 µM | > 100 µM | > 100 µM | > 100 µM | > 100 µM | > 100 µM | – | – | > 100 µM | > 100 µM | – | – | – | – |
